Measured values from patent publication US8318723B2, “Pyrazine compounds, their use and methods of preparation” (Boehringer Ingelheim International GmbH, priority 2006, dated 2012).
pIC50: −log10 of the molar value.

target: PIM-2 (Homo sapiens, UniProt Q9P1W9); test: PIM-2 assay, IC50 determination (luciferase-luciferin ATP depletion, 10-point dose response); format: biochemical; settings: 10 nM PIM-2, 1 μM ATP, 50 μM peptide substrate, 15 minutes at room temperature
Sequence (Q9P1W9 whole entry): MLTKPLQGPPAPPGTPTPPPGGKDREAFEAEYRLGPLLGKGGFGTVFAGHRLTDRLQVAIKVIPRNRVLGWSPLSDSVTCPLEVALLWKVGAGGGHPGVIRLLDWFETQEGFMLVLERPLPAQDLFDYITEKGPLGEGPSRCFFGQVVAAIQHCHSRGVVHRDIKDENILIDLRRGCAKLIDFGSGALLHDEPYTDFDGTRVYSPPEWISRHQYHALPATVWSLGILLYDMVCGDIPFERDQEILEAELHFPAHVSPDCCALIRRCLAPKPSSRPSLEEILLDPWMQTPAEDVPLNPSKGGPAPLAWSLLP
Method: The screen utilizes the Zymark Allegro UHTS system to dispense reagents, buffers and test compounds. To Greiner 384-well, white Lumitrac-200 plates, 20 μL/well of 20 nM PIM-2 (10 nM final assay concentration) in assay buffer (25 mM HEPES, pH 7.5, 10 mM MgCl2, 50 mM KCl, 0.2% CHAPS, 100 μM Na3VO4, 0.2% BSA and 200 μM TCEP) is delivered, followed by 10 μL/well of test compounds (3 μg/mL final assay concentration in 1% DMSO) that were previously dissolved in DMSO and diluted in assay buffer. A 10 μL volume of a solution containing 4 μM ATP (1 μM final assay concentration) and 20 μM peptide substrate (Biotin-[sequence], 5 μM final assay concentration) diluted in assay buffer is added to each well and the contents of the wells are mixed. […] Positive control wells receive 10 μL/well of assay buffer in lieu of compound. The kinase reaction mixture is incubated for 60 minutes at room temperature. A 40 μL/well of ATP detection reagent is then added to the reaction mixture. The assay plates are read on an Analyst (Molecular Devices) in luminescence mode following additional 15 minutes of incubation at room temperature. Luminescence signals are converted to percent of control (POC) values using the formula: POC=(BCTRL−Signal)÷(BCTRL−PCTRL), where Signal is the test well signal, BCTRL is the average of background control well signals on the plate and PCTRL is the average of positive control well signals on the plate.
The IC50 of the compounds is determined with a modification of the above method. The assay is performed in 96-well Lumitrac-200, white, plates. Test compounds dissolved in DMSO (5 mg/mL) are serially diluted 1 to 3 in DMSO for 10-point dose response. The DMSO dilutions are further diluted in the assay buffer and 15 μL of this dilution is added to the assay plate, for a final starting assay concentration of 5 μg/mL in 1% DMSO. A 15 μL volume of 40 nM PIM-2 followed by 30 μL of a solution containing 2 μM ATP and 100 μM peptide substrate, all diluted in assay buffer, is added to each well for a final assay concentration of 10 nM PIM-2, 1 μM ATP, and 50 μM peptide substrate. The kinase reaction mixture is incubated for 15 minutes at room temperature. A 60 μL/well of ATP detection reagent is then added to the reaction mixture. The assay plates are read on an Analyst (Molecular Devices) in luminescence mode following additional 15 minutes of incubation at room temperature. IC50 is determined by fitting the POC of the dose response data to a 4-parameter logistic equation.

Point of comparison: `CC(=O)N1CCCN(c2cncc(-c3cccc(/C=C/C(=O)O)c3)n2)CC1` [compound 31, (E)-3-{3-[6-(4-Acetyl-[1,4]diazepan-1-yl)-pyrazin-2-yl]-phenyl}-acrylic acid], pIC50 6.06. Against it:
- NCCNc1cncc(-c2cccc(/C=C/C(=O)O)c2)n1 [compound 12, (E)-3-{3-[6-(2-Amino-ethylamino)-pyrazin-2-yl]-phenyl}-acrylic acid] — 0.79 log units higher, 6.85
- NCCCCNc1cncc(-c2cccc(/C=C/C(=O)O)c2)n1 [compound 5, (E)-3-{3-[6-(4-Amino-butylamino)-pyrazin-2-yl]-phenyl}-acrylic acid] — 1.60 log units higher, 7.66
- O=C(O)/C=C/c1cccc(-c2cncc(N3CCNCC3)n2)c1 [compound 28, (E)-3-[3-(3,4,5,6-Tetrahydro-2H-[1,2′]bipyrazinyl-6′-yl)-phenyl]-acrylic acid] — 0.64 log units higher, 6.70
- CN1CCCN(c2cncc(-c3cncc(/C=C/C(=O)O)c3)n2)CC1 [compound 37, (E)-3-{5-[6-(4-Methyl-[1,4]diazepan-1-yl)-pyrazin-2-yl]-pyridin-3-yl}-acrylic acid] — 0.35 log units higher, 6.41
- O=C(O)/C=C/c1cccc(-c2cncc(N3CCCCCC3)n2)c1 [compound 35, (E)-3-[3-(6-Azepan-1-yl-pyrazin-2-yl)-phenyl]-acrylic acid] — 0.58 log units lower, 5.48
- CC(=O)NCCNc1cncc(-c2cccc(/C=C/C(=O)O)c2)n1 [compound 21, (E)-3-{3-[6-(2-Acetylamino-ethylamino)-pyrazin-2-yl]-phenyl}-acrylic acid] — within 0.2 log units, 5.99
- CNCCN(C)c1cncc(-c2cccc(/C=C/C(=O)O)c2)n1 [compound 13, (E)-3-(3-{6-[Methyl-(2-methylamino-ethyl)-amino]-pyrazin-2-yl}-phenyl)-acrylic acid] — 0.56 log units higher, 6.62
- CN1CCCN(c2cccc(-c3cccc(/C=C/C(=O)O)c3)n2)CC1 [compound 36, (E)-3-{3-[6-(4-Methyl-[1,4]diazepan-1-yl)-pyridin-2-yl]-phenyl}-acrylic acid] — 1.28 log units higher, 7.34
- O=C(O)/C=C/c1cccc(-c2cncc(N3CCC(CO)CC3)n2)c1 [compound 33, (E)-3-{3-[6-(4-Hydroxymethyl-piperidin-1-yl)-pyrazin-2-yl]-phenyl}-acrylic acid] — 0.38 log units lower, 5.68
- NC(=O)CNc1cncc(-c2cccc(/C=C/C(=O)O)c2)n1 [compound 15, (E)-3-{3-[6-(Carbamoylmethyl-amino)-pyrazin-2-yl]-phenyl}-acrylic acid] — 1.02 log units higher, 7.08
- CN1CCCN(c2cncc(-c3cccc(CCC(=O)O)c3)n2)CC1 [compound 38, 3-[3-[6-(4-Methyl-[1,4]diazepan-1-yl)-pyrazin-2-yl]-phenyl]-propionic acid] — 0.21 log units lower, 5.85
- O=C(O)/C=C/c1cccc(-c2cncc(N[C@H]3CC[C@H](O)CC3)n2)c1 [compound 3, (E)-3-{3-[6-(4-Hydroxy-cyclohexylamino)-pyrazin-2-yl]-phenyl}-acrylic acid] — 0.52 log units higher, 6.58
- NCCCNc1cncc(-c2cccc(/C=C/C(=O)O)c2)n1 [compound 6, (E)-3-{3-[6-(3-Amino-propylamino)-pyrazin-2-yl]-phenyl}-acrylic acid] — 1.51 log units higher, 7.57
- CN(C)CCNc1cncc(-c2cccc(/C=C/C(=O)O)c2)n1 [compound 9, (E)-3-{3-[6-(2-Dimethylamino-ethylamino)-pyrazin-2-yl]-phenyl}-acrylic acid] — 0.94 log units higher, 7.00
- COCCCNc1cncc(-c2cccc(/C=C/C(=O)O)c2)n1 [compound 19, (E)-3-{3-[6-(3-Methoxy-propylamino)-pyrazin-2-yl]-phenyl}-acrylic acid] — 0.26 log units higher, 6.32
- CN(C)C1CCN(c2cncc(-c3cccc(/C=C/C(=O)O)c3)n2)CC1 [compound 24, (E)-3-{3-[6-(4-Dimethylamino-piperidin-1-yl)-pyrazin-2-yl]-phenyl}-acrylic acid] — 1.08 log units higher, 7.14
- CN(C)CCCNc1cncc(-c2cccc(/C=C/C(=O)O)c2)n1 [compound 8, (E)-3-{3-[6-(3-Dimethylamino-propylamino)-pyrazin-2-yl]-phenyl}-acrylic acid] — 0.97 log units higher, 7.03
- CC(C)(CN)CNc1cncc(-c2cccc(/C=C/C(=O)O)c2)n1 [compound 7, (E)-3-{3-[6-(3-Amino-2,2-dimethyl-propylamino)-pyrazin-2-yl]-phenyl}-acrylic acid] — 1.51 log units higher, 7.57
- NCC1CCN(c2cncc(-c3cccc(/C=C/C(=O)O)c3)n2)CC1 [compound 22, (E)-3-{3-[6-(4-Aminomethyl-piperidin-1-yl)-pyrazin-2-yl]-phenyl}-acrylic acid] — 1.62 log units higher, 7.68
- O=C(O)/C=C/c1cccc(-c2cncc(N3CCCN(Cc4ccccc4)CC3)n2)c1 [compound 29, (E)-3-{3-[6-(4-Benzyl-[1,4]diazepan-1-yl)-pyrazin-2-yl]-phenyl}-acrylic acid] — 0.58 log units higher, 6.64
- CNCCCN(C)c1cncc(-c2cccc(/C=C/C(=O)O)c2)n1 [compound 10, (E)-3-(3-{6-[Methyl-(3-methylamino-propyl)-amino]-pyrazin-2-yl}-phenyl)-acrylic acid] — 0.90 log units higher, 6.96
- CN1CCCN(c2cncc(-c3cccc(/C=C/c4nnn[nH]4)c3)n2)CC1 [compound 43, 1-Methyl-4-(6-{3-[(E)-2-(1H-tetrazol-5-yl)-vinyl]-phenyl}-pyrazin-2-yl)-[1,4]diazepane] — 0.99 log units higher, 7.05
- NC1CCN(c2cncc(-c3cccc(/C=C/C(=O)O)c3)n2)CC1 [compound 25, (E)-3-{3-[6-(4-Amino-piperidin-1-yl)-pyrazin-2-yl]-phenyl}-acrylic acid] — 0.88 log units higher, 6.94
- COCCNc1cncc(-c2cccc(/C=C/C(=O)O)c2)n1 [compound 20, (E)-3-{3-[6-(2-Methoxy-ethylamino)-pyrazin-2-yl]-phenyl}-acrylic acid] — within 0.2 log units, 5.92
- COC(=O)/C=C/c1cccc(-c2cncc(N3CCCN(C)CC3)n2)c1 [compound 39, (E)-3-{3-[6-(4-Methyl-[1,4]diazepan-1-yl)-pyrazin-2-yl]-phenyl}-acrylic acid methyl ester] — 0.21 log units lower, 5.85
- O=C(O)/C=C/c1cccc(-c2cncc(NCC3CCNCC3)n2)c1 [compound 4, (E)-3-(3-{6-[(Piperidin-4-ylmethyl)-amino]-pyrazin-2-yl}-phenyl)-acrylic acid] — 1.18 log units higher, 7.24
- NC(=O)CCNc1cncc(-c2cccc(/C=C/C(=O)O)c2)n1 [compound 16, (E)-3-{3-[6-(2-Carbamoyl-ethylamino)-pyrazin-2-yl]-phenyl}-acrylic acid] — 0.54 log units higher, 6.60
- CCNCCCNc1cncc(-c2cccc(/C=C/C(=O)O)c2)n1 [compound 11, (E)-3-{3-[6-(3-Ethylamino-propylamino)-pyrazin-2-yl]-phenyl}-acrylic acid] — 0.86 log units higher, 6.92
- CN(C)CCCN(C)c1cncc(-c2cccc(/C=C/C(=O)O)c2)n1 [compound 14, (E)-3-(3-{6-[(3-Dimethylamino-propyl)-methyl-amino]-pyrazin-2-yl}-phenyl)-acrylic acid] — 0.37 log units higher, 6.43
- CN(C)C1CCN(c2cncc(-c3cccc(/C=C/C(=O)O)c3)n2)C1 (centres unmarked) [compound 30, (E)-3-{3-[6-(3-Dimethylamino-pyrrolidin-1-yl)-pyrazin-2-yl]-phenyl}-acrylic acid] — 0.51 log units higher, 6.57
- CN1CCCN(c2cncc(-c3cccc(/C=C/C(N)=O)c3)n2)CC1 [compound 40, (E)-3-{3-[6-(4-Methyl-[1,4]diazepan-1-yl)-pyrazin-2-yl]-phenyl}-acrylamide] — within 0.2 log units, 5.92
- CN1CCN(c2cncc(-c3cccc(/C=C/C(=O)O)c3)n2)CC1 [compound 26, (E)-3-[3-(4-Methyl-3,4,5,6-tetrahydro-2H-[1,2′]bipyrazinyl-6′-yl)-phenyl]-acrylic acid] — 0.76 log units higher, 6.82
- CN1CCCN(c2cncc(-c3cccc(/C=C/C(=O)NS(C)(=O)=O)c3)n2)CC1 [compound 44, N-((E)-3-{3-[6-(4-Methyl-perhydro-1,4-diazepin-1-yl)-pyrazin-2-yl]-phenyl}-acryloyl)-methanesulfonamide] — 0.44 log units lower, 5.62
- O=C(O)/C=C/c1cccc(-c2cncc(NCCO)n2)c1 [compound 17, (E)-3-{3-[6-(2-Hydroxy-ethylamino)-pyrazin-2-yl]-phenyl}-acrylic acid] — 0.46 log units higher, 6.52
- O=C(O)/C=C/c1cccc(-c2cncc(N3CCCNCC3)n2)c1 [compound 27, (E)-3-[3-(6-[1,4]Diazepan-1-yl-pyrazin-2-yl)-phenyl]-acrylic acid] — 0.67 log units higher, 6.73
- O=C(O)/C=C/c1cccc(-c2cncc(N3CCOCC3)n2)c1 [compound 34, (E)-3-[3-(6-Morpholin-4-yl-pyrazin-2-yl)-phenyl]-acrylic acid] — 0.29 log units lower, 5.77
- CN1CCCN(c2cncc(-c3cccc(/C=C/C#N)c3)n2)CC1 [compound 42, (E)-3-{3-[6-(4-Methyl-[1,4]diazepan-1-yl)-pyrazin-2-yl]-phenyl}-acrylonitrile] — 1.17 log units lower, 4.89
- O=C(O)/C=C/c1cccc(-c2cncc(NCCCO)n2)c1 [compound 18, (E)-3-{3-[6-(3-Hydroxy-propylamino)-pyrazin-2-yl]-phenyl}-acrylic acid] — 0.45 log units higher, 6.51
- O=C(O)/C=C/c1cccc(-c2cncc(N3CCC(O)CC3)n2)c1 [compound 32, (E)-3-{3-[6-(4-Hydroxy-piperidin-1-yl)-pyrazin-2-yl]-phenyl}-acrylic acid] — within 0.2 log units, 5.98

same assay, conditions: percent of control at 5 μg/mL (final starting assay concentration of dose response)

In the case of `CN1CCCN(c2cncc(-c3cccc(/C=C/CO)c3)n2)CC1` [compound 41, (E)-3-{3-[6-(4-Methyl-[1,4]diazepan-1-yl)-pyrazin-2-yl]-phenyl}-prop-2-en-1-ol], the “POC @ 5 μg/mL” value was 69POC @ 5 μg/mL.
